ChEMBL document CHEMBL5120930, “Discovery of Benzylpiperazine Derivatives as CNS-Penetrant and Selective Histone Deacetylase 6 Inhibitors” (ACS Med Chem Lett, 2022)
The source made the active and inactive calls. The rule behind the calls is not given here.

What was measured:
[1] = Metabolic stability in human liver microsomes assessed as parent compound remaining at 500 uM measured at 60 mins by LC-MS/MS analysis; assay type: ADME, Microsome; conditions: read-out: Stability
[2] = Metabolic stability in mouse liver microsomes assessed as parent compound remaining at 500 uM measured at 60 mins by LC-MS/MS analysis; assay type: ADME, Microsome; conditions: read-out: Stability
Histone deacetylase 1 = Histone deacetylase 1 (Homo sapiens, UniProt Q13547); experiment: Inhibition of human HDAC1 expressed in human HEK-293T cells using fluorescent peptide RHKKAc as substrate preincubated for 10 mins followed by substrate addition and measured after 1 hr by fluorogenic assay
Homo sapiens [3] = organism: Homo sapiens; experiment: Selectivity ratio of IC50 for inhibition of human HDAC4 using fluorescent peptide Boc-Lys(trifluoroacetyl)-AMC as substrate to IC50 for inhibition of mouse HDAC6 expressed in human HEK-293T cells using fluorescent peptide Ac-KGLGK(Ac)-MCA as substrate
Histone deacetylase 4 = Histone deacetylase 4 (Homo sapiens, UniProt P56524); experiment: Inhibition of human HDAC4 using fluorescent peptide Boc-Lys(trifluoroacetyl)-AMC as substrate preincubated for 10 mins followed by substrate addition and measured after 30 mins by fluorogenic assay
[4] = Lipophilicity, logD of compound at pH 7.4 measured after 20 mins by UPLC analysis; assay type: physicochemical; conditions: buffer
Homo sapiens [5] = organism: Homo sapiens; experiment: Selectivity ratio of IC50 for inhibition of human HDAC1 expressed in human HEK-293T cells using fluorescent peptide RHKKAc as substrate to IC50 for inhibition of mouse HDAC6 expressed in human HEK-293T cells using fluorescent peptide Ac-KGLGK(Ac)-MCA as substrate; assay type: cell-based
[6] = Brain to plasma ratio in C57BL/6J mouse at 10 mg/kg, iv measured after 45 mins by LC-MS/MS analysis; assay type: ADME, organism-based; conditions: brain and plasma, read-out: BPR
Mus musculus [7] = experiment: Antidepressant activity in restraint-stressed C57BL/6J mouse model assessed as increase in acetylated alpha tubulin level in brain at 10 mg/kg, ip measured after 15 mins; assay type: functional, organism-based
[8] = biological target: T1, Protein deacetylase HDAC6 (Mus musculus, UniProt Q9Z2V5); experiment: Inhibition of mouse HDAC6 expressed in human HEK-293T cells using fluorescent peptide Ac-KGLGK(Ac)-MCA as substrate preincubated for 10 mins followed by substrate addition and measured after 1 hr by fluorogenic assay; assay type: cell-based
T1 sequence (Q9Z2V5 whole entry): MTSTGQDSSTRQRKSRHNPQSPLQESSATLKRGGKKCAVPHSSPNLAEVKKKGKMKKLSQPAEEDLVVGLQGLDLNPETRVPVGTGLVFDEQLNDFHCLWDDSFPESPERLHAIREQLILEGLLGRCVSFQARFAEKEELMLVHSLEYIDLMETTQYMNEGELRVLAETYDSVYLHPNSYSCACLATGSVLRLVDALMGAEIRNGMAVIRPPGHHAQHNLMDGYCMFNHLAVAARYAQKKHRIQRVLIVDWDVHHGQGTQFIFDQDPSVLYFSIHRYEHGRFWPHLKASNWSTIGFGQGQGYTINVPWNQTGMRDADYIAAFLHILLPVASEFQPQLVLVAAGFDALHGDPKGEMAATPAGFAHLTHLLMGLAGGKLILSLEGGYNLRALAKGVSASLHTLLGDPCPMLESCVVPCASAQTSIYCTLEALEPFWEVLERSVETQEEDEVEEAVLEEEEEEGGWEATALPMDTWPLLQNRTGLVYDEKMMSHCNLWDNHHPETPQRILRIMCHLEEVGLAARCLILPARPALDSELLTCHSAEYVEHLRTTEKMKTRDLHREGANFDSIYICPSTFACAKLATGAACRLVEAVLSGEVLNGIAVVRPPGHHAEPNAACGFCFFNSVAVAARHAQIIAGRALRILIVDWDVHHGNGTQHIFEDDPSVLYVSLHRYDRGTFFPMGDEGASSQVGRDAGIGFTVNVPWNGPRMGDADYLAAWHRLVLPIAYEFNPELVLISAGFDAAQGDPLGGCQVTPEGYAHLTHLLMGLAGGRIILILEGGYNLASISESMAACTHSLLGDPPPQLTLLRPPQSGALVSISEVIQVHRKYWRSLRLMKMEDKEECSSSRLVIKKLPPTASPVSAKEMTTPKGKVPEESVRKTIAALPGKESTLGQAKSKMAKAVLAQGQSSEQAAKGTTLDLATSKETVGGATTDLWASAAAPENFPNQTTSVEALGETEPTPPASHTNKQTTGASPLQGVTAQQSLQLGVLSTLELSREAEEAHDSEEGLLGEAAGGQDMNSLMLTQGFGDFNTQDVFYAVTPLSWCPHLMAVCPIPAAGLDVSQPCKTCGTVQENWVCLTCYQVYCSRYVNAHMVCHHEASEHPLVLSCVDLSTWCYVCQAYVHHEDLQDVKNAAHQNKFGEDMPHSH

[9] = biological target: Voltage-gated inwardly rectifying potassium channel KCNH2 (Homo sapiens, UniProt Q12809); experiment: Inhibition of human ERG potassium channel by fluorescence polarization assay; assay type: toxicity
Mus musculus [10] = experiment: Antidepressant activity in restraint-stressed C57BL/6J mouse model assessed as reduction in immobility time at 10 mg/kg, ip measured at 14 mins relative to control (Rvb= 569.6 +/- 27.6 sec); assay type: functional
[11] = Apparent permeability in human Caco-2 cells incubated for 2 hrs by LC-MS/MS analysis; assay type: ADME, cell-based
Mus musculus [12] = experiment: Antidepressant activity in restraint-stressed C57BL/6J mouse model assessed as reduction in immobility time at 20 mg/kg, ip measured at 14 mins relative to control (Rvb= 569.6 +/- 27.6 sec); assay type: functional

Sequence of Voltage-gated inwardly rectifying potassium channel KCNH2 (Q12809 whole entry): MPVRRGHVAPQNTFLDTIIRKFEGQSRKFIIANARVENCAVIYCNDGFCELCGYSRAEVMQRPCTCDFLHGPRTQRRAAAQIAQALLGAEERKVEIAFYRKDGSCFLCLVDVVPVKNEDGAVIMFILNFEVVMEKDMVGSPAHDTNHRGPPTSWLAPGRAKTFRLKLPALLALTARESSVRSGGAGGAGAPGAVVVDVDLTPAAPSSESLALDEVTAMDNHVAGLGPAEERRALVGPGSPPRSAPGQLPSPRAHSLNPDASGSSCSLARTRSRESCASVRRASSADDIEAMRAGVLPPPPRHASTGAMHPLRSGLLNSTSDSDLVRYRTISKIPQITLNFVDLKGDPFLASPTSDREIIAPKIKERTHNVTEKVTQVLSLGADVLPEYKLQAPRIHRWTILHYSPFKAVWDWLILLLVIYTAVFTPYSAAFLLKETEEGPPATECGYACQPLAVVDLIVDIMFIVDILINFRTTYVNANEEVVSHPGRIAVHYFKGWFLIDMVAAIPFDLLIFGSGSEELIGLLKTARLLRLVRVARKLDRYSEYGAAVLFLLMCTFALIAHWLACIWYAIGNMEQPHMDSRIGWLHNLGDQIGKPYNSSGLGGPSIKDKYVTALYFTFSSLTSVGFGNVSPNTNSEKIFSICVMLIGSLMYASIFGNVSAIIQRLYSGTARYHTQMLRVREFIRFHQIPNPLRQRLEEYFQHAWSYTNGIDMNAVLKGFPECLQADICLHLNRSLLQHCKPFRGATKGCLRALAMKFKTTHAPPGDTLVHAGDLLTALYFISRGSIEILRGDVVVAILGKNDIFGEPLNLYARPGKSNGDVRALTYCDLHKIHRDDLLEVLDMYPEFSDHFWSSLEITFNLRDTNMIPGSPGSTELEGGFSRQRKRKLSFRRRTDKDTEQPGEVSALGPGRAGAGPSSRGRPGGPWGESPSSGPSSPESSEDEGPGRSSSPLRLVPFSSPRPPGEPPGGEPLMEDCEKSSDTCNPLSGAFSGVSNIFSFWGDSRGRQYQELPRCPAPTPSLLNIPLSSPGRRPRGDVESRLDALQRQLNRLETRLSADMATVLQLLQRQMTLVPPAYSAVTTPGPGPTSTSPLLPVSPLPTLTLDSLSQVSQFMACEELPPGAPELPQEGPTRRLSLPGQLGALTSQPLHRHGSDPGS
Sequence of Histone deacetylase 1 (Q13547 whole entry): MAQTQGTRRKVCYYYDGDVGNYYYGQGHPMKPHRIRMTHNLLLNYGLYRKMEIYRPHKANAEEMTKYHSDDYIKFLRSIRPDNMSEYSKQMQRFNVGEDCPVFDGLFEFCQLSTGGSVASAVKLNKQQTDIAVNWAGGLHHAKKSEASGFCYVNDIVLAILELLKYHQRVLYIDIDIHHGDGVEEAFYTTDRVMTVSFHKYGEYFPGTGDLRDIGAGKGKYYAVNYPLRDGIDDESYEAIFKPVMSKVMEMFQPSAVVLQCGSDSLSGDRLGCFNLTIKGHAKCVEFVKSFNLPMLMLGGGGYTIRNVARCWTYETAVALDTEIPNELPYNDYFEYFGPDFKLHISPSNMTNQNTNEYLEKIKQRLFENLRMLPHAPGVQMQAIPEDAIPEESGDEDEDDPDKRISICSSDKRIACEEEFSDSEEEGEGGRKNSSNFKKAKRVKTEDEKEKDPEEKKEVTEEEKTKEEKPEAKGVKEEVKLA
Sequence of Histone deacetylase 4 (P56524 whole entry): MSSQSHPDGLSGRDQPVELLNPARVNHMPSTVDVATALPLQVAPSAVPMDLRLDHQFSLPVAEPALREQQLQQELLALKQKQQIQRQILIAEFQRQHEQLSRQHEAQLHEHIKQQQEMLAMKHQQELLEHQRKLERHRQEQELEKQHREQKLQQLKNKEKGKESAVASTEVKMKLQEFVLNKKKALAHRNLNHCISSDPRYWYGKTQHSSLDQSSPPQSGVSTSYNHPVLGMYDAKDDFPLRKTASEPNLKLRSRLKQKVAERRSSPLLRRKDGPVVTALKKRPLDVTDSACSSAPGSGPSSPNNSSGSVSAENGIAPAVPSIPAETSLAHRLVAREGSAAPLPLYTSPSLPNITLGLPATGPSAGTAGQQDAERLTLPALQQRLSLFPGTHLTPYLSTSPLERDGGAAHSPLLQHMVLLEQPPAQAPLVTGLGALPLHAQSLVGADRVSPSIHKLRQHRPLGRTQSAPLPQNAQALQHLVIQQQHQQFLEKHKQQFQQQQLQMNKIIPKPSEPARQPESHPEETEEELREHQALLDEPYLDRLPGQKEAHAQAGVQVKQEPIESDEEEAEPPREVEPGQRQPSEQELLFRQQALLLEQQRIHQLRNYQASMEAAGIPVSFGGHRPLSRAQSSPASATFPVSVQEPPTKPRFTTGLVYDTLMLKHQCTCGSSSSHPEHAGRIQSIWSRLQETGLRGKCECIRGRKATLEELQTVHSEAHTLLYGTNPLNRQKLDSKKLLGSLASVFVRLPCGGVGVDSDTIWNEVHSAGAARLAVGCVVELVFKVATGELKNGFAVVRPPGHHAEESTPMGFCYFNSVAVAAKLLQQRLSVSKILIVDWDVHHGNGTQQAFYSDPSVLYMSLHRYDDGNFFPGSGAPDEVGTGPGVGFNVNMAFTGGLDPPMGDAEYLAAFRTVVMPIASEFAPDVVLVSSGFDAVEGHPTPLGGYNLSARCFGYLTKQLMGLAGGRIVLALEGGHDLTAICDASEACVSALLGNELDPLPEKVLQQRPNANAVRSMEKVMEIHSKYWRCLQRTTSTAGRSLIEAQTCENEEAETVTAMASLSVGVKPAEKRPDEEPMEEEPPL

| Compound | remaining at 1 h [1] | remaining at 1 h, 500 µM [2] | IC50 (Histone deacetylase 1) | Ratio IC50 (Homo sapiens [3]) | IC50 (Histone deacetylase 4) | logD at 20 min [4] | Ratio IC50 (Homo sapiens [5]) | Kp at 0.75 h [6] | Activity (Mus musculus [7]) | IC50 [8] | IC50 [9] | Time (Mus musculus [10]) | Papp at 2 h [11] | Time (Mus musculus [12]) |
| --- | --- | --- | --- | --- | --- | --- | --- | --- | --- | --- | --- | --- | --- | --- |
| CC(c1ccccc1)N1CCN(Cc2ccc(C(=O)NO)cc2)CC1 (stereo not given) | 63% | 67% | 6.7 µM | 47 | 12.3 µM | 2.1 | 26 | 6.73 | Active | 0.26 µM | 106 µM | 453 s | 109 nm/s | – |
| O=C(NO)c1ccc(CN2CCN(C(c3ccccc3)c3ccccc3)CC2)cc1 | 62% | 1% | 4.4 µM | 40 | 4.4 µM | 3.8 | 40 | 7.91 | – | 0.11 µM | 0.66 µM | 410.7 s | 171 nm/s | – |
| CNCCC(Oc1ccc(C(F)(F)F)cc1)c1ccccc1 (stereo not given) [FLUOXETINE] | – | – | – | – | – | – | – | – | – | – | – | – | – | 405.5 s |
| O=C(NO)c1ccc(CN2CCN(Cc3ccccc3)CC2)cc1 | 73% | 80% | 10.4 µM | 35 | 9.2 µM | 1.9 | 40 | 4.37 | – | 0.26 µM | 73.1 µM | 507.3 s | 116 nm/s | – |
| O=C(NO)c1ccc(CCCN2CCN(C(c3ccccc3)c3ccccc3)CC2)cc1 | – | – | 3.8 µM | 3 | 1.9 µM | – | 7 | – | – | 0.58 µM | – | – | – | – |
| O=C(NO)c1cccc(CN2CCN(C(c3ccccc3)c3ccccc3)CC2)c1 | – | – | 46.6 µM | – | > 100 µM | – | 7 | – | – | 6.6 µM | – | – | – | – |
| O=C(NO)c1ccc(CCCCN2CCN(C(c3ccccc3)c3ccccc3)CC2)cc1 | – | – | 5.5 µM | 12 | 5 µM | – | 13 | – | – | 0.43 µM | – | – | – | – |
| O=C(NO)c1ccccc1CN1CCN(C(c2ccccc2)c2ccccc2)CC1 | – | – | > 100 µM | – | > 100 µM | – | – | – | – | > 100 µM | – | – | – | – |
| O=C(NO)c1ccc(CCN2CCN(C(c3ccccc3)c3ccccc3)CC2)cc1 | – | – | 4.8 µM | 9 | 3 µM | – | 15 | – | – | 0.33 µM | – | – | – | – |
